Measured values from US7388105B2, “Compounds and use to reduce the formation of malodour” (Givaudan S.A., priority 2005, dated 2008).
Where two headings read alike, the source gives them in different places.

Target: alpha-N-acyl-glutamine-aminoacylase (Corynebacterium striatum, UniProt Q8GGD4)
Assay: Competitive substrates of alpha-N-acyl-glutamine-aminoacylase: reduction of acid release
Assay type: biochemical
Details: for inhibition at 50 µM: tested compound 0.05 mM; for inhibition at 50 µM / inhibition at 100 µM / inhibition at 200 µM / inhibition at 400 µM: 15 min; for inhibition at 100 µM: tested compound 0.1 mM; for inhibition at 200 µM: tested compound 0.2 mM; for inhibition at 400 µM: tested compound 0.4 mM
Method: In a sample, the enzyme alpha-N-acyl-glutamine-aminoacylase was used at a concentration of 36 ng/ml in Buffer A (50 mM NaCl; 50 mM NaH2PO4/K2HPO4; pH 7). To each sample, alpha-N-decanoyl-glutamine or alpha-N-(E)-3-methyl-2-hexenoyl-glutamine was added at a final concentration of 0.2 mM as a substrate.
Further, to each sample various competitive substrates are added as shown in Table 1 below at different concentrations as indicated.
The resulting samples with enzyme, substrate and competitive substrate were incubated for 15 minutes, acidified to pH 2 with HCl and extracted with methyl tert butyl ether (MTBE). […] The percentage of the reduction of the release when compared to the positive control is given in Table 1 (equals inhibition of the enzmye).

[1] = substrate alpha-N-decanoyl-glutamine 0.2 mM, release of decanoic acid vs positive control, read-out: % Inhibition (DA)
[2] = substrate alpha-N-(E)-3-methyl-2-hexenoyl-glutamine 0.2 mM, release of (E)-3-methyl-2-hexenoic acid vs positive control, read-out: % Inhibition (MH)

Sequence of alpha-N-acyl-glutamine-aminoacylase (Q8GGD4 whole entry): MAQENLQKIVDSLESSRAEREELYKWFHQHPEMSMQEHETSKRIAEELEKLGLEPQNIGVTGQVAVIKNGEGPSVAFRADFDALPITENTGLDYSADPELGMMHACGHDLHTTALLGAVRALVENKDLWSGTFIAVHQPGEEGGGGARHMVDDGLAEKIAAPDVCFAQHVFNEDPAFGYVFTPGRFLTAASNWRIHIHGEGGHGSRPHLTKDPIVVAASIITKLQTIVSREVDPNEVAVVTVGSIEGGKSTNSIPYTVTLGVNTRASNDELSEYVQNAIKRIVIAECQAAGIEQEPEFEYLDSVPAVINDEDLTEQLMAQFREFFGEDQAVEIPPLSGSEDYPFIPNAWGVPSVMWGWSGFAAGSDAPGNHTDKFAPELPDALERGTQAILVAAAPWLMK

SMILES | inhibition at 50 µM [1] | inhibition at 100 µM [2] | inhibition at 100 µM [1] | inhibition at 200 µM [2] | inhibition at 200 µM [1] | inhibition at 400 µM [2] | Inhibition of Nα-acyl-glutamine-aminoacylase (in words) (summary of Table 1)
C=CCCCCCCCCC(=O)NC(CCC(N)=O)C(=O)O [Compound 2, alpha-N-(10-undecenoyl)-L-glutamine] | 0.9% | 0% | 2.2% | 2.1% | 15.6% | 24.2% | –
CC(C)=CCCC(C)CCOC(=O)NC(CCC(N)=O)C(=O)O [Compound 4, alpha-N-(3,7-dimethyl-oct-6-enyloxycarbonyl)-L-glutamine] | 15.9% | -0.3% | 13.8% | 17.1% | 34.6% | 16.1% | –
CCCCOC(=O)N[C@@H](CCC(N)=O)C(=O)O [Compound 5, alpha-N-Butyloxycarbonyl-L-glutamine] | 6.7% | 1.1% | 6.8% | 0% | 10.4% | 0% | –
CC(C)(C)C1CCC(OC(=O)N[C@@H](CCC(N)=O)C(=O)O)CC1 (stereo partly drawn) [Compound 6, alpha-N-(4-tert-Butylcyclohexyloxycarbonyl)-L-glutamine] | 11.3% | 4.9% | 14.3% | 14.8% | 21.2% | 28.5% | –
CC1CCC(C(C)C)C(OC(=O)NC(CCC(N)=O)C(=O)O)C1 [Compound 3, alpha-N-(2-isopropyl-5-methylcyclohexanyloxycarbonyl)-L-glutamine] | – | 7.4% | 19.3% | 16.5% | 27.2% | 33.9% | –
CC(CCOC(=O)NC(CCC(N)=O)C(=O)O)CCc1ccccc1 [Compound 1, alpha-N-(3-Methyl-5-phenylpentanyloxycarbonyl)-L-glutamine] | 38.3% | 35.5% | 57% | 58.1% | 64.4% | 78.3% | particularly good inhibitor
